Measured values taken from BindingDB's records for doi:10.1111/j.1527-3458.2004.tb00024.x (Karolinska Institutet, 2004).

Biological target: T1, D1 dopamine receptor (Macaca fascicularis, UniProt Q5I6B7)
T1 sequence (Q5I6B7 whole entry): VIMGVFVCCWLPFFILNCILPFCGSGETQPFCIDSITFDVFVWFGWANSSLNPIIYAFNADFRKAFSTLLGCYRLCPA

For `Oc1cc2c(cc1O)C1c3ccccc3CNC1CC2` (stereo unspecified) [Dihydrexidine, DHX], the Ki was 20.2 nM.
